Reference: US20230331655A1, “HYDROXYN[…] AND METHODS OF USE THEREOF” (UNIVERSITY OF MARYLAND, BALTIMORE, priority 2020, published 2023)
pKi: −log10 of the molar value. Where two headings read alike, the source gives them in different places.

Tests used:
mice [1] = settings: i.p.; earlier study; cited from earlier work
[2] = pharmacokinetics in plasma and brain after intraperitoneal administration (UPLC-MS/MS); type: in vivo, mouse; set-up: key to Brain Concentration over time, sex-dependent difference / Plasma Concentration over time, sex-dependent difference: F, female; M, male; NS, not statistically different; settings: for Kp / half-life / Tmax: CD-1, mouse, ip; for Kp: brain and plasma; for half-life: terminal half-life; for Brain Concentration over time, sex-dependent difference / Plasma Concentration over time, sex-dependent difference / Brain Total exposure (AUC), sex-dependent difference / Plasma Total exposure (AUC), sex-dependent difference: female vs male mice; for Brain Concentration over time, sex-dependent difference / Plasma Concentration over time, sex-dependent difference: ANOVA, Holm-Šídák post-hoc; for Brain Total exposure (AUC), sex-dependent difference / Plasma Total exposure (AUC), sex-dependent difference: t-test; for Tmax: earliest sampling time 10 min
Procedure: Male and female CD-1 mice (Charles Rivers Laboratories, Raleigh, NC, USA), 8-11 weeks old at the time of testing, were habituated to the University of Maryland (Baltimore, MD, USA) animal facility for at least one week prior to testing. Mice were group housed 4-5 per cage with a constant 12-hour light cycle (lights on/off at 07:00/19:00). Food and water were available ad libitum. All experiments were performed during the light phase. All animal studies were approved by the University of Maryland School of Medicine Institutional Animal Care and Use Committee and conducted in accordance with the National Institutes of Health Guide for the Care and Use of Laboratory Animals.
(2R,6R)-HNK hydrochloride, (2S,6S)-HNK hydrochloride, (2R,6S)-HNK, (2S,6R)-HNK, (2R,5R)-HNK, (2S,5S)-HNK, (2R,5S)-HNK, (2S,5R)-HNK, (2R,4R)-HNK, (2S,4S)-HNK, (2R,4S)-HNK, and (2S,4R)-HNK hydrochloride were synthesized at the National Center for Advancing Translation Sciences (National Institutes of Health, Rockville, MD, USA) using methods previously described in Morris et al., Org Lett 17:4572-4575 (2017), which is incorporated by reference herein in its entirety. (5R)-methyl-(2R,6R)-HNK was obtained from Organix Inc. (Woburn, MA, USA) or from the National Center for Advancing Translational Sciences (Rockville, MD, USA); synthesis and characterization are described in the Supplemental Information. All compounds were dissolved in 20% (w/v) cyclodextrin (Sigma Aldrich, USA) in saline and administered intraperitoneally (i.p.) in a volume of 7.5 ml/kg.
At 10 min (0.167 h), 30 min (0.5 h), 1 h, 2 h, and 4 h post-treatment, mice were deeply anesthetized (3.5% isoflurane for approximately 2 min). Trunk blood was collected into 1.5-ml polypropylene tubes containing 30 μl of disodium EDTA (0.5 M, pH 8.0) and kept on ice until plasma collection (<30 min). Brains were then removed, flash-frozen in isopentane, and stored at −80° C. until analysis. Blood was centrifuged at 8000×g for 6 min at 4° C. to obtain plasma. Plasma was collected into clean microcentrifuge tubes and stored at −80° C. until analysis.
Ultra-performance liquid chromatography-tandem mass spectrometry (UPLC-MS/MS) methods were developed and optimized to determine the concentration of each HNK in mouse plasma and brain samples following systemic administration. Mass spectrometric analysis was performed on a Waters Xevo TQ-S triple quadrupole instrument using electrospray ionization in positive mode with the selected reaction monitoring. The separation of HNKs from endogenous components was performed on a Waters Acquity UPLC with 0.5 ml/min flow rate and gradient elution. The mobile phase A and B were 0.1% formic acid in water and 0.1% formic acid in acetonitrile, respectively. Plasma and brain concentrations of (2R,6R)-, (2S,6S)-, (2R,4S)-, and (2S,4R)-HNK were determined by hydrophilic interaction liquid chromatography-tandem mass spectrometry (HILIC UPLC-MS/MS) using a BEH amide column (1.7μ, 2.1×50 mm). Plasma and brain concentrations of (2R,6S)-, (2S,6R)-, (2R,5R)- (2S,5S)-, (2R,5S)-, (2S,5R)-, (2R,4R)-, and (2S,4S)-HNK; and (5R)-methyl-(2R,6R)-HNK were determined by reversed phase UPLC-MS/MS based upon a previously described protocol with several modifications using a BEH C18 column ([…], 2.1×50 mm). See Moaddel et al., Talanta 82:1892-1904 (2010), and Zanos et al., Nature 533:481-486 ([…]), both of which are incorporated by reference herein in their entireties.
The gradient for HILIC UPLC method was: 0-0.2 min 98% B; 0.2-1.4 min 98% to 35% B; 1.4-1.8 min 35% to 10% B, 1.9-2.4 min 98% B. The gradient for BEH Cis UPLC method was: 0-0.2 min 1% B; 0.2-1.4 min 1% to 35% B; 1.4-1.8 min 35% to 98% B, 1.8-2.2 min 98% B, 2.3 min 1% B. The analytical run time of the UPLC methods was 2.5 min. The calibration standards and quality control samples were prepared in blank mouse plasma and brain homogenate. Calibration standards ranged from 5.0-5000 ng/ml. […]

NMDARs = settings: read-out: Ki (binding / inhibition of NMDARs); cited from earlier work
[3] = i.p.; earlier study; cited from earlier work
mice [4] = experiment: antidepressant-relevant behavioral actions after oral administration; type: in vivo, mouse
[5] = female mice, i.p. 5 mg/kg, read-out: B:P ratio (brain to plasma AUC ratio)
[6] = male mice, i.p. 5 mg/kg, read-out: B:P ratio (brain to plasma AUC ratio)
[7] = brain, female mice, i.p. 5 mg/kg, read-out: t1/2 Brain (converted)
[8] = brain, male mice, i.p. 5 mg/kg, read-out: t1/2 Brain (converted)
[9] = plasma, female mice, i.p. 5 mg/kg, read-out: t1/2 Plasma (converted)
[10] = plasma, male mice, i.p. 5 mg/kg, read-out: t1/2 Plasma (converted)
[11] = male mice, equivalent systemic doses

SMILES | lowest dose reducing forced swim test immobility time (mice [1]) [mg/kg] | Kp [2, 5] | Kp [2, 6] | half-life [2, 7] [min] | half-life [2, 8] [min] | half-life [2, 9] [min] | half-life [2, 10] [min] | Brain Concentration over time, sex-dependent difference ([2]; i.p. 5 mg/kg) | Plasma Concentration over time, sex-dependent difference ([2]; i.p. 5 mg/kg) | Brain Total exposure (AUC), sex-dependent difference ([2]; i.p. 5 mg/kg) | Plasma Total exposure (AUC), sex-dependent difference ([2]; i.p. 5 mg/kg) | pKi (NMDARs) | lowest dose reducing escape failures in the learned helplessness test [3] [mg/kg] | peak and total brain levels, lower compared to equivalent dosing with (2R,6R)-HNK ([2]; male mice) | further results
N[C@@]1(c2ccccc2Cl)CCC[C@@H](O)C1=O [(2R,6R)-HNK, (2R,6R)-hydroxynorketamine] | 5 | 1.3 | 1.3 | 36 | 36 | 36 | 36 | F > M at 10, 30 min | F > M at 10, 30 min | F > M | F > M | < 4.00 | 3 |  | oral doses exerting antidepressant-relevant behavioral actions (mice [4]): 15 to 50 mg/kg
N[C@@]1(c2ccccc2Cl)CCC[C@H](O)C1=O [(2R,6S)-HNK] |  | 0.7 | 0.6 | 24 | 42 |  | 54 | NS | main effect of sex, M > F | M > F | M > F |  |  | two-fold | brain concentration at 4 h post-treatment ([2]; females, but not males, i.p. 5 mg/kg, LLOQ 5.0 ng/ml): below LLOQs
N[C@]1(c2ccccc2Cl)CCC[C@@H](O)C1=O [(2S,6R)-HNK] |  | 1.4 | 1.2 |  |  |  | 42 | main effect of sex, F > M | NS | F > M | F > M |  |  | three-fold | 
N[C@]1(c2ccccc2Cl)CCC[C@H](O)C1=O [(2S,6S)-HNK, (2S,6S)-hydroxynorketamine] | 25 | 1.2 |  | 42 | 42 |  | 42 | F > M at 10, 30 min | main effect of sex, F > M | F > M | F > M | 4.67 to 5.13 | 75 |  | Cmax and AUC, fold greater than those of (2R,6R)-HNK [2, 11]: 2-3 fold; peak and total brain levels, fold greater than those of (2R,6R)-HNK [2, 11]: 2-3 fold
C[C@@H]1CC[C@@](N)(c2ccccc2Cl)C(=O)[C@@H]1O.Cl [(5R)-methyl-(2R,6R)-HNK, (2R,5R,6R)-2-amino-2-(2-chlorophenyl)-6-hydroxy-5-methylcyclohexan-1-one hydrochloride] |  | 0.4 | 0.4 | 42 | 48 | 48 | 48 | NS | main effect of sex, M > F | M > F | M > F |  |  |  | Tmax ([2]; brain, both sexes, i.p. 5 mg/kg, read-out: Tmax in the brain (converted)): 10 min; Tmax ([2]; plasma, both sexes, i.p. 5 mg/kg, read-out: Tmax in the plasma (converted)): 10 min; Kp ([2]; both sexes, male and female mice, i.p. 5 mg/kg, read-out: brain to plasma AUC (exposure) ratio): 0.4
